According to US12077503B2, “Substituted cyclic amides and their use as herbicides” (FMC CORPORATION, priority 2015, dated 2024):

Columns and labels:
Type in all cases: in vivo
[1] = tested on: barnyardgrass (Echinochloa crus-galli); experiment: Test G Pre-Emergence Protocol; conditions: Echinochloa crus-galli, pre-emergence, 312 h, evaluated after 13 days; for pest or weed control at 15.625 g/ha: 15.625 g ai/ha, read-out: Barnyard grass damage rating (100=total damage to plant; 0=no damage to plant); for pest or weed control at 62.5 g/ha: 62.5 g ai/ha, 100=total damage to plant, 0=no damage to plant, read-out: plant damage rating, Barnyardgrass; for pest or weed control at 250 g/ha: 250 g ai/ha, read-out: Barnyardgrass damage rating (100=total damage to plant; 0=no damage to plant)
In short: (§1)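 Pots of seeds in standard soil were grown for one day in a glasshouse (24/16 °C day/night, 14 h light, 65% humidity), then sprayed with compound in acetone/water 50:50 with 0.5% Tween 20 at 15.625, 62.5 or 250 g/ha. Damage was scored after 13 days on a 0 (none) to 100 (total) scale.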

corn (Zea mays) [2] = experiment: Test G Pre-Emergence Protocol; conditions: Zea mays, pre-emergence, 312 h, evaluated after 13 days; for plant injury at 15.625 g/ha: 15.625 g ai/ha; for plant injury at 15.625 g/ha / plant injury at 250 g/ha: read-out: Corn damage rating (100=total damage to plant; 0=no damage to plant); for plant injury at 62.5 g/ha: 62.5 g ai/ha, 100=total damage to plant, 0=no damage to plant, read-out: plant damage rating, Corn; for plant injury at 250 g/ha: 250 g ai/ha
In short: as §1

[3] = tested on: giant foxtail (Setaria faberi); experiment: Test G Pre-Emergence Protocol; conditions: Setaria faberi, pre-emergence, 312 h, evaluated after 13 days; for pest or weed control at 15.625 g/ha: 15.625 g ai/ha; for pest or weed control at 15.625 g/ha / pest or weed control at 250 g/ha: read-out: Foxtail, Giant damage rating (100=total damage to plant; 0=no damage to plant); for pest or weed control at 62.5 g/ha: 62.5 g ai/ha, 100=total damage to plant, 0=no damage to plant, read-out: plant damage rating, Foxtail, Giant; for pest or weed control at 250 g/ha: 250 g ai/ha
In short: as §1

[4] = tested on: ivy-leaved morning glory (Ipomoea hederacea); experiment: Test G Pre-Emergence Protocol; conditions: Ipomoea, pre-emergence, 312 h, evaluated after 13 days; for pest or weed control at 15.625 g/ha: 15.625 g ai/ha, read-out: Morning-glory, Ivy-leaved damage rating (100=total damage to plant; 0=no damage to plant); for pest or weed control at 62.5 g/ha: 62.5 g ai/ha, 100=total damage to plant, 0=no damage to plant, read-out: plant damage rating, Morningglory, Ivy-leaved; for pest or weed control at 250 g/ha: 250 g ai/ha, read-out: Morningglory, Ivy-leaved damage rating (100=total damage to plant; 0=no damage to plant)
In short: as §1

[5] = tested on: redroot pigweed (Amaranthus retroflexus); experiment: Test G Pre-Emergence Protocol; conditions: Amaranthus retroflexus, pre-emergence, 312 h, evaluated after 13 days; for pest or weed control at 15.625 g/ha: 15.625 g ai/ha; for pest or weed control at 15.625 g/ha / pest or weed control at 250 g/ha: read-out: Pigweed, Redroot damage rating (100=total damage to plant; 0=no damage to plant); for pest or weed control at 62.5 g/ha: 62.5 g ai/ha, 100=total damage to plant, 0=no damage to plant, read-out: plant damage rating, Pigweed, Redroot; for pest or weed control at 250 g/ha: 250 g ai/ha
In short: as §1

[6] = tested on: velvetleaf (Abutilon theophrasti); experiment: Test G Pre-Emergence Protocol; conditions: Abutilon theophrasti, pre-emergence, 312 h, evaluated after 13 days; for pest or weed control at 15.625 g/ha: 15.625 g ai/ha; for pest or weed control at 15.625 g/ha / pest or weed control at 250 g/ha: read-out: Velvetleaf damage rating (100=total damage to plant; 0=no damage to plant); for pest or weed control at 62.5 g/ha: 62.5 g ai/ha, 100=total damage to plant, 0=no damage to plant, read-out: plant damage rating, Velvetleaf; for pest or weed control at 250 g/ha: 250 g ai/ha
In short: as §1

[7] = tested on: barnyardgrass (Echinochloa crus-galli); experiment: Test G Post-Emergence Protocol; conditions: Echinochloa crus-galli, post-emergence, 312 h; for pest or weed control at 15.625 g/ha: 15.625 g ai/ha, evaluated after 13 days (100=total damage to plant; 0=no damage to plant), read-out: Barnyardgrass damage rating; for pest or weed control at 62.5 g/ha: 62.5 g ai/ha, read-out: Barnyardgrass damage rating (100=total damage to plant; 0=no damage to plant); for pest or weed control at 62.5 g/ha / pest or weed control at 250 g/ha: evaluated after 13 days; for pest or weed control at 250 g/ha: 250 g ai/ha, read-out: damage to plant, Barnyardgrass (100=total damage to plant; 0=no damage to plant)
In short: (§2)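 Eight days post-sowing, plants received a spray of test compound (acetone/water 50:50, 0.5% Tween 20) at 15.625, 62.5 or 250 g/ha. Glasshouse regime thereafter: 24/16 °C, 14 h light, 65% humidity. Assessment after 13 days on a 0–100 damage scale.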

corn (Zea mays) [8] = experiment: Test G Post-Emergence Protocol; conditions: Zea mays, post-emergence, 312 h; for plant injury at 15.625 g/ha: 15.625 g ai/ha, evaluated after 13 days (100=total damage to plant; 0=no damage to plant), read-out: Corn damage rating; for plant injury at 62.5 g/ha: 62.5 g ai/ha, read-out: Corn damage rating (100=total damage to plant; 0=no damage to plant); for plant injury at 62.5 g/ha / plant injury at 250 g/ha: evaluated after 13 days; for plant injury at 250 g/ha: 250 g ai/ha, read-out: damage to plant, Corn (100=total damage to plant; 0=no damage to plant)
In short: as §2

[9] = tested on: giant foxtail (Setaria faberi); experiment: Test G Post-Emergence Protocol; conditions: Setaria faberi, post-emergence, 312 h; for pest or weed control at 15.625 g/ha: 15.625 g ai/ha, evaluated after 13 days (100=total damage to plant; 0=no damage to plant), read-out: Foxtail, Giant damage rating; for pest or weed control at 62.5 g/ha: 62.5 g ai/ha, read-out: Foxtail, Giant damage rating (100=total damage to plant; 0=no damage to plant); for pest or weed control at 62.5 g/ha / pest or weed control at 250 g/ha: evaluated after 13 days; for pest or weed control at 250 g/ha: 250 g ai/ha, read-out: damage to plant, Foxtail, Giant (100=total damage to plant; 0=no damage to plant)
In short: as §2

[10] = tested on: ivy-leaved morning glory (Ipomoea hederacea); experiment: Test G Post-Emergence Protocol; conditions: Ipomoea, post-emergence, 312 h; for pest or weed control at 15.625 g/ha: 15.625 g ai/ha, evaluated after 13 days (100=total damage to plant; 0=no damage to plant), read-out: Morningglory, Ivy-leaved damage rating; for pest or weed control at 62.5 g/ha: 62.5 g ai/ha, read-out: Morningglory, Ivy-leaved damage rating (100=total damage to plant; 0=no damage to plant); for pest or weed control at 62.5 g/ha / pest or weed control at 250 g/ha: evaluated after 13 days; for pest or weed control at 250 g/ha: 250 g ai/ha, read-out: damage to plant, Morningglory, Ivy-leaved (100=total damage to plant; 0=no damage to plant)
In short: as §2

[11] = tested on: redroot pigweed (Amaranthus retroflexus); experiment: Test G Post-Emergence Protocol; conditions: Amaranthus retroflexus, post-emergence, 312 h; for pest or weed control at 15.625 g/ha: 15.625 g ai/ha, evaluated after 13 days (100=total damage to plant; 0=no damage to plant), read-out: Pigweed, Redroot damage rating; for pest or weed control at 62.5 g/ha: 62.5 g ai/ha, read-out: Pigweed, Redroot damage rating (100=total damage to plant; 0=no damage to plant); for pest or weed control at 62.5 g/ha / pest or weed control at 250 g/ha: evaluated after 13 days; for pest or weed control at 250 g/ha: 250 g ai/ha, read-out: damage to plant, Pigweed, Redroot (100=total damage to plant; 0=no damage to plant)
In short: as §2

[12] = tested on: velvetleaf (Abutilon theophrasti); experiment: Test G Post-Emergence Protocol; conditions: Abutilon theophrasti, post-emergence, 312 h; for pest or weed control at 15.625 g/ha: 15.625 g ai/ha, evaluated after 13 days (100=total damage to plant; 0=no damage to plant), read-out: Velvetleaf damage rating; for pest or weed control at 62.5 g/ha: 62.5 g ai/ha, read-out: Velvetleaf damage rating (100=total damage to plant; 0=no damage to plant); for pest or weed control at 62.5 g/ha / pest or weed control at 250 g/ha: evaluated after 13 days; for pest or weed control at 250 g/ha: 250 g ai/ha, read-out: damage to plant, Velvetleaf (100=total damage to plant; 0=no damage to plant)
In short: as §2

Row | SMILES | pest or weed control at 15.625 g/ha [1] [%] | pest or weed control at 62.5 g/ha [1] [%] | pest or weed control at 250 g/ha [1] [%] | plant injury at 15.625 g/ha (corn (Zea mays) [2]) [%] | plant injury at 62.5 g/ha (corn (Zea mays) [2]) [%] | plant injury at 250 g/ha (corn (Zea mays) [2]) [%] | pest or weed control at 15.625 g/ha [3] [%] | pest or weed control at 62.5 g/ha [3] [%] | pest or weed control at 250 g/ha [3] [%] | pest or weed control at 15.625 g/ha [4] [%] | pest or weed control at 62.5 g/ha [4] [%] | pest or weed control at 250 g/ha [4] [%] | pest or weed control at 15.625 g/ha [5] [%] | pest or weed control at 62.5 g/ha [5] [%] | pest or weed control at 250 g/ha [5] [%] | pest or weed control at 15.625 g/ha [6] [%] | pest or weed control at 62.5 g/ha [6] [%] | pest or weed control at 250 g/ha [6] [%] | pest or weed control at 15.625 g/ha [7] [%] | pest or weed control at 62.5 g/ha [7] [%] | other results
1 | CN1C[C@@H](c2cnc(Cl)c(Cl)c2)[C@H](C(=O)Nc2cccc(F)c2F)C1=O (racemic) [Compound 1487] | 30 | 90 | 80 | 10 | 20 | 70 | 80 | 90 | 90 | 0 | 0 | 20 | 0 | 0 | 80 | 0 | 0 | 30 | 50 | 60 | pest or weed control at 250 g/ha [7]: 70%; plant injury at 15.625 g/ha (corn (Zea mays) [8]): 20%; plant injury at 62.5 g/ha (corn (Zea mays) [8]): 60%; plant injury at 250 g/ha (corn (Zea mays) [8]): 70%; pest or weed control at 15.625 g/ha [9]: 60%; pest or weed control at 62.5 g/ha [9]: 70%; pest or weed control at 250 g/ha [9]: 70%; pest or weed control at 15.625 g/ha [10]: 0%; pest or weed control at 62.5 g/ha [10]: 0%; pest or weed control at 250 g/ha [10]: 20%; pest or weed control at 15.625 g/ha [11]: 20%; pest or weed control at 62.5 g/ha [11]: 0%; pest or weed control at 250 g/ha [11]: 30%; pest or weed control at 15.625 g/ha [12]: 0%; pest or weed control at 62.5 g/ha [12]: 0%; pest or weed control at 250 g/ha [12]: 20%
2 | CC(C)c1cc([C@H]2CN(C)C(=O)[C@@H]2C(=O)Nc2cccc(F)c2F)cnn1 (racemic) [Compound 1488] | 0 | 0 | 0 | 0 | 0 | 0 | 0 | 0 | 0 | 0 | 0 | 0 | 0 | 0 | 0 | 0 | 0 | 0 | 0 | 20 | pest or weed control at 250 g/ha [7]: 20%; plant injury at 15.625 g/ha (corn (Zea mays) [8]): 0%; plant injury at 62.5 g/ha (corn (Zea mays) [8]): 10%; plant injury at 250 g/ha (corn (Zea mays) [8]): 0%; pest or weed control at 15.625 g/ha [9]: 0%; pest or weed control at 62.5 g/ha [9]: 0%; pest or weed control at 250 g/ha [9]: 30%; pest or weed control at 15.625 g/ha [10]: 0%; pest or weed control at 62.5 g/ha [10]: 0%; pest or weed control at 250 g/ha [10]: 0%; pest or weed control at 15.625 g/ha [11]: 0%; pest or weed control at 62.5 g/ha [11]: 0%; pest or weed control at 250 g/ha [11]: 0%; pest or weed control at 15.625 g/ha [12]: 0%; pest or weed control at 62.5 g/ha [12]: 0%; pest or weed control at 250 g/ha [12]: 0%
